Reference: publication PMC12064818, “A general assay platform to study protein pharmacology using ligand-dependent structural dynamics” (Nature Communications, 2025)
pEC50, pIC50: −log10 of the molar value. Values joined by “and” are separate entries in the source; they are usually repeats but may differ in a detail not shown here. Identical values can stand only once. Counter-ions that a name gives are not always drawn. Like-named read-outs stand apart in the source and are kept apart here.

How the values were obtained:
[1] = target: T1, ABL1-N-HiBiT kinase domain (Homo sapiens, UniProt P00519); test: SDR assay, ABL1-N-HiBiT; settings: for ABL1 SDR pSDR50: heatmap data, 128 kinase inhibitors; for SDR Ave Max Response / pEC50: ABL1-N-HiBiT qHTS; for SDR Ave Max Response: average maximal SDR response; for pEC50: read-out: SDR Ave SDR50, average, unit inferred
T1 sequence (P00519 233-500): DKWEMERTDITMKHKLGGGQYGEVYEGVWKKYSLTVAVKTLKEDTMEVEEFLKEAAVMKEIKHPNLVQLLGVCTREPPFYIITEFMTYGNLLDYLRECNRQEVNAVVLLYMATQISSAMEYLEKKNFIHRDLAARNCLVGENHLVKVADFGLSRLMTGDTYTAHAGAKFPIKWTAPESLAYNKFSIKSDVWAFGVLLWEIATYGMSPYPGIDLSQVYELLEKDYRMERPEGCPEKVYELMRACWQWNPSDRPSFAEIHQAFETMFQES

[2] = target: T2, PKA-N-HiBiT (Homo sapiens, UniProt P17612); test: SDR assay, PKA-N-HiBiT; settings: for SDR Ave Max Response: average maximal response; for PKA SDR: Log [H-89]
[3] = test system: ABL1; settings: cited from earlier work
[4] = test system: PKA; settings: annotation yes/no for kinase library compound; source not given; cited from earlier work
[5] = target: T2, PKA-N-HiBiT; test: PKA peptide phosphorylation, Kinase-Glo Plus (KGP) assay, PKA-N-HiBiT; format: biochemical; parameters: containing amino acids Gly2-Phe351; His10 (N); made in house; host or cells: E. coli BL21(DE3); settings: for pIC50: PKA-N-HiBiT qHTS, Kinase-Glo Plus, average, read-out: PKA KGP Ave IC50; for Efficacy / Hill Coef / Max Resp / CC-v2: KGP Rep 1; for CC-v2: curve class; for IC50: Figure 2i correlation plot data, read-out: ABL1 Enz Assay Mean (PKA KGP assay pIC50) (converted)
Experimental: (§1) Kinase activity was measured by ATP depletion using the Kinase-Glo Plus (KGP) assay kit (Promega) in 1536-well plate format. […] Controls were added with a Mosquito dispenser (STP LabTech) while compounds were transferred with a pintool to each plate as described in Supplementary Data 8 and incubated for 30 min at ambient temperature. […] Following a 10 min incubation, KGP luminescence was measured with a ViewLux plate reader with 1 sec exposure, with medium to high gain setting, slow speed and 2x binning. Data were normalized to the average of no enzyme control column as 100% kinase inhibition and DMSO control column as 100% phosphorylation reaction progress. See Supplementary Table 5 for additional details.
(§2) Protocol for Abelson kinase (ABL1) and protein kinase A (PKA) peptide phosphorylation assays
(§3) Supplementary Table 5: Protocol for Abelson kinase (ABL1) and protein kinase A (PKA) peptide phosphorylation assays Sequence Param eter Value Description
(§4) 3 Incubation 30 m in Incubate enzym e + com pounds at am bient tem p for 30 m in, protected from light […]
(§5) protocol; dispensed with BioRaptr 2

[6] = target: T1, ABL1-N-HiBiT kinase domain; test: ABL1 peptide phosphorylation, Kinase-Glo Plus (KGP) assay, ABL1-N-HiBiT; format: biochemical; parameters: containing amino acid residues Asp233-Ser500; His10 (N); made in house; host or cells: E. coli BL21(DE3); settings: for Efficacy / Hill Coef / Max Resp / CC-v2: KGP Rep 1; for CC-v2: curve class; for ABL1 KGP pIC50: ABL1, Kinase-Glo Plus (KGP), heatmap data, 128 kinase inhibitors; for pIC50: ABL1-N-HiBiT qHTS, average, unit inferred, read-out: ABL1 KGP Ave IC50
Experimental: as §1, §2, §3, §4, §5

[7] = read-out: PKA SDR Ave SDR50, PKA-N-HiBiT qHTS, SDR assay, average
[8] = PKA-N-HiBiT […] Std, ligand 62.5 µM Std
[9] = PKA-N-HiBiT 10 nM SDR, ligand 35.7 µM SDR

Compound | ABL1 SDR pSDR50 [1] | SDR Ave Max Response [1] | pEC50 [1] | SDR Ave Max Response ([2]; PKA-N-HiBiT qHTS, SDR assay) | Annotated ABL1 activity [3] | Annotated PKA activity [4] | pIC50 [5] | pEC50 [2, 7] | also measured
N#Cc1cn([C@@H]2O[C@H](CO)[C@@H](O)[C@H]2O)c2ncnc(N)c12 [Toyocamycin] | 4.93 | 72.44 | 4.89 | -0.53 | no | no |  |  | 
CCN(CC)CCOc1ccc(Nc2ncc3cc(-c4c(Cl)cccc4Cl)c(=O)n(C)c3n2)cc1.Cl.Cl.O [PD-166285 hydrate] |  | 51.60 |  | -22.35 | yes | no |  |  | 
COc1ccc(S(=O)(=O)N(C(C)=O)c2ccccc2/C=C/c2cc[n+]([O-])cc2)cc1 [HMN-214] |  | 8.52 |  | 5.93 | no | no |  |  | 
Cc1n[nH]c2ccc(-c3cncc(OC[C@@H](N)Cc4c[nH]c5ccccc45)c3)cc12 [A-443654] | 5.32 | -27.36 | 5.25 | 40.10 |  | yes | 5.69 | 6.73 | 
CC(C)(C)n1nc(-c2cccc3ccccc23)c2c(N)ncnc21 [1-Naphthyl PP1] |  | 61.87 |  | 10.40 | yes | no |  |  | 
Cc1cc(O)c2c(c1)C(=O)c1cc(O)cc(O)c1C2=O [Emodin] |  | -3.42 |  | -14.68 |  | no |  | 4.82 | Efficacy [6]: 23.75; Hill Coef [6]: 1.10; Max Resp [6]: 17.37; CC-v2 [6]: 4; Efficacy [5]: -14.49; Hill Coef [5]: 3.19; Max Resp [5]: 8.59; CC-v2 [5]: 4; pEC50 [2]: 4.85
N[C@H]1CC[C@H](Nc2nc(Nc3ccc(C(=O)N4CCCCC4)cc3)c3ncn(-c4cccc(F)c4)c3n2)CC1 [Purfalcamine] | 6.61 | 91.87 | 6.61 | 23.75 |  | no | 4.52 |  | ABL1 KGP pIC50 [6]: 5.42; pIC50 [6]: 5.41; IC50 [5]: 22.9 µM; pEC50 [2]: 3.93
Nc1ncnc2c1c(-c1cnc3[nH]ccc3c1)nn2C1CCCC1 [PP-121] |  |  |  | 6.39 | yes | yes |  |  | 
PF-477736 | 6.38 | 81.41 | 6.36 | 33.34 |  | no | 5.27 | 5.89 | ABL1 KGP pIC50 [6]: 6.01; pIC50 [6]: 5.98
O=S(=O)(NCCNC/C=C/c1ccc(Br)cc1)c1cccc2cnccc12 [H-89, reference compound] |  |  |  |  |  |  |  |  | Standard assay statistics Ave RLU [5, 8]: 21788.2 RLU; Standard assay statistics S:B [5, 8]: 6.8; Standard assay statistics S:N [5, 8]: 6.3; Standard assay statistics Z’ [5, 8]: 0.328; PKA SDR ([2]; M -4.45): 61.3 and 59.1 and 49.2; PKA SDR ([2]; M -4.75): 61.4 and 58.5 and 52.3; PKA SDR ([2]; M -5.05): 60.9 and 55.5 and 49.6; PKA SDR ([2]; M -5.35): 55.3 and 45.9 and 48.2; PKA SDR ([2]; M -5.65): 48.5 and 39.4 and 60.1; PKA SDR ([2]; M -5.95): 47.4 and 33.3 and 39.2; PKA SDR ([2]; M -6.25): 38.3 and 24.0 and 33.5; PKA SDR ([2]; M -6.55): 31.1 and 18.8 and 27.3; SDR assay statistics Ave RLU [2, 9]: 31921.7 RLU; SDR assay statistics S:B [2, 9]: 1.5; SDR assay statistics S:N [2, 9]: 2.6; SDR assay statistics Z’ [2, 9]: -0.628
c1cc(-c2cc(C3CCNCC3)[nH]n2)ccn1 [ETP 45835 2HCl] | 5.02 | -32.09 | 5.02 | 25.66 |  | no |  | 4.71 | IC50 [5]: 83.2 µM; pEC50 [2]: 5.08
O=c1c(O)c(-c2ccc(O)c(O)c2)oc2cc(O)cc(O)c12 [Quercetin] |  | 48.80 | 5.04 | -5.00 |  | no |  |  | pIC50 [6]: 5.23; Efficacy [5]: -15.69; Hill Coef [5]: 1.22; Max Resp [5]: 9.03; CC-v2 [5]: 4
PF-562271 HCl | 4.94 | 70.73 | 4.92 | 40.60 |  | no | 4.34 | 5.34 | pIC50 [6]: 5.23
CCN1/C(=C/C(C)=O)Sc2ccc(OC)cc21 [TG003] |  | 9.57 |  | 6.70 |  | no |  |  | Efficacy [6]: 49.18; Hill Coef [6]: 4.96; Max Resp [6]: 37.84; CC-v2 [6]: 3; Efficacy [5]: 0.00; Max Resp [5]: 8.95; CC-v2 [5]: 4
O=C(Nc1c[nH]nc1-c1nc2ccc(CN3CCOCC3)cc2[nH]1)NC1CC1 [AT9283] |  |  |  | 67.79 |  | yes | 6.06 | 7.34 | pEC50 [2]: 7.36
I-BET762 |  | 6.74 |  |  | no |  |  |  | 
COc1cc(N2CCOCC2)ccc1Nc1ncc(Cl)c(Nc2ccccc2NS(C)(=O)=O)n1 [CZC 54252 HCl] | 5.09 | 69.42 | 5.02 | 40.07 |  | no | 4.30 | 5.80 | ABL1 KGP pIC50 [6]: 5.38; pIC50 [6]: 5.00; IC50 [5]: 33.9 µM; pEC50 [2]: 5.87
